One block for each compound: values may come before it.
What was measured:
[1] = biological target: T1, RPL10 60S ribosomal protein L10 (Homo sapiens, UniProt P27635); experiment: competitive isoTOP-ABPP; type: binding; conditions: for R value (DMSO/fragment) for probe 1 labeling: P27635_K121; for R value (DMSO/fragment) for probe 1 labeling / isoTOP-ABPP reactivity ratio at lysine P27635_K121 / isoTOP-ABPP ratio (R) at liganded lysine P27635_K121: 50 uM, in vitro; for R value (DMSO/fragment) for probe 1 labeling / isoTOP-ABPP reactivity ratio at lysine P27635_K121: 231 sol; for isoTOP-ABPP ratio (R) at liganded lysine P27635_K121: sol, 231
T1 construct: isoTOP-ABPP experiments performed in cell lysates (in vitro); endogenous in cells; host or cells: soluble proteome of human cancer cell lines (MDA-MB-231; Ramos and Jurkat also prepared)
Procedure, shortened: (§1)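 Cell lysate (0.5 ml) was pre-treated with fragment, 50 μM for activated esters or 100 μM for guanidinylating agents, versus DMSO, then labeled 1 h at ambient temperature with 0.1 mM STP-alkyne. Light/heavy TEV tags attached by CuAAC; R = DMSO/compound MS1 peak-area ratio, median per lysine.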

[2] = biological target: T2, GTPBP3 tRNA modification GTPase GTPBP3, mitochondrial (Homo sapiens, UniProt Q969Y2); experiment: competitive isoTOP-ABPP; type: binding; conditions: for R value (DMSO/fragment) for probe 1 labeling: Q969Y2_K492; for R value (DMSO/fragment) for probe 1 labeling / isoTOP-ABPP reactivity ratio at lysine Q969Y2_K492 / isoTOP-ABPP ratio (R) at liganded lysine Q969Y2_K492: 50 uM, in vitro; for R value (DMSO/fragment) for probe 1 labeling / isoTOP-ABPP reactivity ratio at lysine Q969Y2_K492: 231 sol; for isoTOP-ABPP ratio (R) at liganded lysine Q969Y2_K492: sol, 231
T2 construct: isoTOP-ABPP experiments performed in cell lysates (in vitro); endogenous in cells; host or cells: soluble proteome of human cancer cell lines (MDA-MB-231; Ramos and Jurkat also prepared)
T2 sequence (Q969Y2 21-492): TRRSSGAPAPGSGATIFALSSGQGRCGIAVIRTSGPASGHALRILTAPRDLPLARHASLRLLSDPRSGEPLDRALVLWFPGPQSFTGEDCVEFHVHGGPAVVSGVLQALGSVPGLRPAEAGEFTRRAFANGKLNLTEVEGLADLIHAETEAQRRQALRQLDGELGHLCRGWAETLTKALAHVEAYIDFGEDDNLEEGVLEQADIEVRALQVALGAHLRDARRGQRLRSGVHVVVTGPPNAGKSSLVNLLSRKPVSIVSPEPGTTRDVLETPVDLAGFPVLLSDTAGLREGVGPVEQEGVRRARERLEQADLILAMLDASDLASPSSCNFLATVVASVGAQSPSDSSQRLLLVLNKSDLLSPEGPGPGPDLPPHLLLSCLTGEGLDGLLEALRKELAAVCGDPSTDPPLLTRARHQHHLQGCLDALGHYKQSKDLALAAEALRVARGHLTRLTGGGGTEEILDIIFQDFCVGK
Procedure, shortened: as §1

R value (DMSO/fragment) for probe 1 labeling [1]: 0.9
Structure (SMILES): O=C(CCc1cn(-c2ccccc2)nc1-c1ccccc1)Oc1c(F)c(F)c(F)c(F)c1F [fragment 19, Pentafluorophenyl 3-(1,3-diphenyl-1H-pyrazol-4-yl)propanoate]

R value (DMSO/fragment) for probe 1 labeling [2]: 1.1
R value (DMSO/fragment) for probe 1 labeling [1]: 0.7
Structure (SMILES): O=C(Oc1c(F)c(F)c(F)c(F)c1F)C(c1ccccc1)c1ccccc1 [fragment 20, Pentafluorophenyl 2,2-diphenylacetate]

R value (DMSO/fragment) for probe 1 labeling [2]: 1.3
R value (DMSO/fragment) for probe 1 labeling [1]: 0.8
Structure (SMILES): O=C(Oc1c(F)c(F)c(F)c(F)c1F)c1cc(C(F)(F)F)cc(C(F)(F)F)c1 [fragment 21, Pentafluorophenyl 3,5-bis(trifluoromethyl)benzoate]

R value (DMSO/fragment) for probe 1 labeling [2]: 1.1
R value (DMSO/fragment) for probe 1 labeling [1]: 0.9
Structure (SMILES): Cn1cc(CC(=O)Oc2c(F)c(F)c(F)c(F)c2F)c2ccccc21 [fragment 22, Pentafluorophenyl 2-(1-methyl-1H-indol-3-yl)acetate]

isoTOP-ABPP reactivity ratio at lysine Q969Y2_K492 [2]: 5.0
isoTOP-ABPP reactivity ratio at lysine P27635_K121 [1]: 0.9
Structure (SMILES): O=C(CCc1coc2cc(F)ccc2c1=O)Oc1c(F)c(F)c(F)c(F)c1F [fragment 26, Pentafluorophenyl 3-(7-fluoro-4-oxo-4H-chromen-3-yl)propanoate]

isoTOP-ABPP reactivity ratio at lysine Q969Y2_K492 [2]: 1.6
Structure (SMILES): O=C(CN1C(=O)c2ccccc2C1=O)Oc1c(F)c(F)c(F)c(F)c1F [fragment 27, Pentafluorophenyl 2-(1,3-dioxoisoindolin-2-yl)acetate]

Structure (SMILES): O=C(CCc1cn(-c2ccccc2)nc1-c1ccccc1)Oc1ccc([N+](=O)[O-])cc1[N+](=O)[O-] [fragment 29, 2,4-Dinitrophenyl 3-(1,3-diphenyl-1H-pyrazol-4-yl)propanoate]
isoTOP-ABPP reactivity ratio at lysine Q969Y2_K492 [2]: 20.0
isoTOP-ABPP reactivity ratio at lysine P27635_K121 [1]: 1.4

Structure (SMILES): O=C(Oc1ccc([N+](=O)[O-])cc1[N+](=O)[O-])C(c1ccccc1)c1ccccc1 [fragment 30, 2,4-Dinitrophenyl 2,2-diphenylacetate]
isoTOP-ABPP reactivity ratio at lysine Q969Y2_K492 [2]: 1.5
isoTOP-ABPP reactivity ratio at lysine P27635_K121 [1]: 1.1

Structure (SMILES): O=C(Oc1ccc([N+](=O)[O-])cc1[N+](=O)[O-])c1cc(C(F)(F)F)cc(C(F)(F)F)c1 [fragment 31, 2,4-Dinitrophenyl 3,5-bis(trifluoromethyl)benzoate]
isoTOP-ABPP reactivity ratio at lysine Q969Y2_K492 [2]: 1.4

Structure (SMILES): Cn1cc(CC(=O)Oc2ccc([N+](=O)[O-])cc2[N+](=O)[O-])c2ccccc21 [fragment 32, 2,4-Dinitrophenyl 2-(1-methyl-1H-indol-3-yl)acetate]
isoTOP-ABPP reactivity ratio at lysine Q969Y2_K492 [2]: 1.8
isoTOP-ABPP reactivity ratio at lysine P27635_K121 [1]: 1.7

Structure (SMILES): O=C(Oc1ccc([N+](=O)[O-])cc1[N+](=O)[O-])C1CCN(C(=O)OCc2ccccc2)CC1 [fragment 34, 1-Benzyl 4-(2,4-dinitrophenyl) piperidine-1,4-dicarboxylate]
isoTOP-ABPP ratio (R) at liganded lysine Q969Y2_K492 [2]: 1.6
isoTOP-ABPP ratio (R) at liganded lysine P27635_K121 [1]: 1.3

Structure (SMILES): O=C(Oc1ccc([N+](=O)[O-])cc1[N+](=O)[O-])c1ccc2ccccc2n1 [fragment 35, 2,4-Dinitrophenyl quinoline-2-carboxylate]
isoTOP-ABPP ratio (R) at liganded lysine P27635_K121 [1]: 0.6

Structure (SMILES): O=C(CCc1coc2cc(F)ccc2c1=O)Oc1ccc([N+](=O)[O-])cc1[N+](=O)[O-] [fragment 36, 2,4-Dinitrophenyl 3-(7-fluoro-4-oxo-4H-chromen-3-yl)propanoate]
isoTOP-ABPP ratio (R) at liganded lysine Q969Y2_K492 [2]: 2.9
isoTOP-ABPP ratio (R) at liganded lysine P27635_K121 [1]: 0.5

Structure (SMILES): O=C(Oc1ccc([N+](=O)[O-])cc1[N+](=O)[O-])c1ccc(-c2ccccc2)cc1 [fragment 37, 2,4-Dinitrophenyl [1,1′-biphenyl]-4-carboxylate]
isoTOP-ABPP ratio (R) at liganded lysine Q969Y2_K492 [2]: 1.2
isoTOP-ABPP ratio (R) at liganded lysine P27635_K121 [1]: 0.8

Structure (SMILES): O=C(CC12CC3CC(CC(C3)C1)C2)Oc1ccc([N+](=O)[O-])cc1[N+](=O)[O-] [fragment 38, 2,4-Dinitrophenyl 2-(adamantan-1-yl)acetate]
isoTOP-ABPP ratio (R) at liganded lysine Q969Y2_K492 [2]: 1.1
isoTOP-ABPP ratio (R) at liganded lysine P27635_K121 [1]: 20.0

Structure (SMILES): O=C(Oc1ccc([N+](=O)[O-])cc1[N+](=O)[O-])c1ccc(Oc2ccccc2)cc1 [fragment 39, 2,4-Dinitrophenyl 4-phenoxybenzoate]
isoTOP-ABPP ratio (R) at liganded lysine Q969Y2_K492 [2]: 1.2
isoTOP-ABPP ratio (R) at liganded lysine P27635_K121 [1]: 1.0

Structure (SMILES): O=C(Oc1ccc([N+](=O)[O-])cc1[N+](=O)[O-])c1ccccc1Nc1cccc(C(F)(F)F)c1 [fragment 40, 2,4-Dinitrophenyl 2-((3-(trifluoromethyl)phenyl)amino)benzoate]
isoTOP-ABPP ratio (R) at liganded lysine Q969Y2_K492 [2]: 0.6

Structure (SMILES): CC(C)(C)OC(=O)NCCCC(=O)Oc1ccc([N+](=O)[O-])cc1[N+](=O)[O-] [fragment 41, 2,4-Dinitrophenyl 4-((tert-butoxycarbonyl)amino)butanoate]
isoTOP-ABPP ratio (R) at liganded lysine P27635_K121 [1]: 0.8

Structure (SMILES): O=C(Oc1ccc([N+](=O)[O-])cc1[N+](=O)[O-])C(c1ccccc1)(c1ccccc1)c1ccccc1 [fragment 42, 2,4-Dinitrophenyl 2,2,2-triphenylacetate]
isoTOP-ABPP ratio (R) at liganded lysine Q969Y2_K492 [2]: 0.9

Structure (SMILES): CC(=O)Oc1ccc([N+](=O)[O-])cc1[N+](=O)[O-] [fragment 43, 2,4-Dinitrophenyl acetate]
isoTOP-ABPP ratio (R) at liganded lysine Q969Y2_K492 [2]: 1.5
isoTOP-ABPP ratio (R) at liganded lysine P27635_K121 [1]: 20.0

Structure (SMILES): N#Cc1ccc(C(=O)Oc2ccc([N+](=O)[O-])cc2[N+](=O)[O-])cc1 [fragment 44, 2,4-Dinitrophenyl 4-cyanobenzoate]
isoTOP-ABPP ratio, lysine Q969Y2_K492 ([2]; 50 uM_231_sol_in vitro): 0.9
isoTOP-ABPP ratio, lysine P27635_K121 ([1]; 50 uM_231_sol_in vitro): 0.6

Structure (SMILES): O=C(CCc1ccc2c(c1)OCO2)Oc1ccc([N+](=O)[O-])cc1[N+](=O)[O-] [fragment 45, 2,4-Dinitrophenyl 3-(benzo[d][1,3]dioxol-5-yl)propanoate]
isoTOP-ABPP ratio, lysine Q969Y2_K492 ([2]; 50 uM_231_sol_in vitro): 1.4
isoTOP-ABPP ratio, lysine P27635_K121 ([1]; 50 uM_231_sol_in vitro): 1.8

Structure (SMILES): O=C(ON1C(=O)CCC1=O)c1cc(C(F)(F)F)cc(C(F)(F)F)c1 [fragment 46, 3,5-Bis(trifluoromethyl)benzoic acid NHS ester]
isoTOP-ABPP ratio, lysine Q969Y2_K492 ([2]; 50 uM_231_sol_in vitro): 1.9
isoTOP-ABPP ratio, lysine P27635_K121 ([1]; 50 uM_231_sol_in vitro): 0.8

isoTOP-ABPP ratio, lysine Q969Y2_K492 ([2]; 50 uM_231_sol_in vitro): 1.7
isoTOP-ABPP ratio, lysine P27635_K121 ([1]; 50 uM_231_sol_in vitro): 1.1
Structure (SMILES): O=C(Oc1c(F)c(F)c(C(F)(F)F)c(F)c1F)c1cc(C(F)(F)F)cc(C(F)(F)F)c1 [fragment 47, 2,3,5,6-Tetrafluoro-4-(trifluoromethyl)phenyl 3,5-bis(trifluoromethyl)benzoate]

isoTOP-ABPP ratio, lysine Q969Y2_K492 ([2]; 50 uM_231_sol_in vitro): 1.4
isoTOP-ABPP ratio, lysine P27635_K121 ([1]; 50 uM_231_sol_in vitro): 0.8
Structure (SMILES): O=C(Oc1c(F)c(F)cc(F)c1F)c1cc(C(F)(F)F)cc(C(F)(F)F)c1 [fragment 48, 2,3,5,6-Tetrafluorophenyl 3,5-bis(trifluoromethyl)benzoate]

isoTOP-ABPP ratio, lysine P27635_K121 ([1]; 100 uM_231_sol_in vitro): 1.8
Structure (SMILES): COC(=O)NC(=NC(=O)OCC1c2ccccc2-c2ccccc21)n1cccn1 [fragment 49, N-Methoxycarbonyl-N′-9-fluorenylmethoxycarbonyl-pyrazole-1-carboxamidine]

isoTOP-ABPP ratio, lysine Q969Y2_K492 ([2]; 100 uM_231_sol_in vitro): 0.9
isoTOP-ABPP ratio, lysine P27635_K121 ([1]; 100 uM_231_sol_in vitro): 1.0
Structure (SMILES): CC(C)(C)OC(=O)N=C(NC(=O)OC(C)(C)C)n1cccn1 [fragment 50, reference compound]

Source: US20210255193A1, “LYSINE REACTIVE PROBES AND USES THEREOF” (The Scripps Research Institute, priority 2017, published 2021)
